Tests used:
[1] = Log D7.4 shake flask assay; type: physicochemical; settings: octanol/PBS, pH 7.4
Chemical stability assay = type: physicochemical; settings: 37 °C
[2] = Caco-2 bidirectional permeability assay; settings: human, Caco-2, 10 µM, 37 °C
[3] = system: MCF7 (EGFR positive cancer cell line); assay: LDH release cytotoxicity / cell viability assay in MCF7; type: cell-based; settings: Homo sapiens
[4] = buffer pH 2.0, pH 2, Chemical Stability - Half-Life, pH 2.0, 5 µM
[5] = buffer pH 10.0, pH 10, Chemical Stability - Half-Life, pH 10.0, 5 µM

**Q.** Which solubility at 24 h (Thermodynamic solubility; pH 4.5) does the source give for `CCCSc1ccc2nc(NC(=O)OC)[nH]c2c1` [Albendazole, albendazole] here?
**A.** < 1 µg/mL

**Q.** And the “Thermodynamic Solubility” value (Thermodynamic solubility; pH 7.4, PBS, room temperature, 24 h)?
**A.** 0.72 ± 0.2 µg/mL

**Q.** And the logD at 4 h [1]?
**A.** 3.6 ± 0.1

**Q.** Which half-life at 5 µM (Chemical stability assay; [4]) does the source give for `COc1ccc2[nH]c([S+]([O-])Cc3ncc(C)c(OC)c3C)nc2c1` (stereo not shown) [Omeprazole] here?
**A.** 10.2 ± 3.1 min

**Q.** And the half-life at 5 µM (Chemical stability assay; [5])?
**A.** 55.3 ± 11.4 min

**Q.** Which half-life at 5 µM (Chemical stability assay; [4]) does the source give for `CC(C)[N+](C)(CCOC(=O)C1c2ccccc2Oc2ccccc21)C(C)C` [Propantheline bromide] here?
**A.** 82.9 ± 14.8 min

**Q.** What about the half-life at 5 µM (Chemical stability assay; [5]) of the same molecule?
**A.** 8.3 ± 2.6 min

**Q.** What does the source list for `CC(C)NCC(O)COc1cccc2ccccc12` (stereo not shown) [Propranolol, propranolol]?
**A.** Papp at 2 h, 10 µM ([2]; Caco-2, pH 7.4, Papp (Apical to Basal), apical to basal): 29 ± 1.2 ×10⁻⁶ cm/s; Papp at 2 h, 10 µM ([2]; Caco-2, pH 7.4, Papp (Basal to Apical), basal to apical): 21.1 ± 0.3 ×10⁻⁶ cm/s

**Q.** With `CC(C)(O)CC(=O)NCCn1ccc2ncnc(Nc3ccc(Oc4cccc(C(F)(F)F)c4)c(Cl)c3)c21` [TAK-285] as the molecule, how does the IC50 [3] read?
**A.** 15.5 ± 5.6 µM

Source: article PMC9077134 (OncoTargets and therapy, 2022)
